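In this assay, cells in 96-well plates receive the compound at five concentrations for 48 hours. Endpoints are linearly interpolated between the surrounding concentrations. Definition used: TGI = concentration required for complete inhibition of growth.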
Assays:
Assay in all cases: NCI anticancer screen, dose series, 48 h
HOP-62 NSCLC = system: HOP-62 NSCLC
LOX IMVI melanoma = system: LOX IMVI melanoma
M19-MEL melanoma = system: M19-MEL melanoma
SNB-75 CNS = system: SNB-75 CNS
UACC-62 melanoma = system: UACC-62 melanoma
NCI-H23 lung = system: NCI-H23 lung
SNB-19 CNS = system: SNB-19 CNS
HL-60(TB) leukemia = system: HL-60(TB) leukemia
KM12 colon = system: KM12 colon
SK-MEL-2 melanoma = system: SK-MEL-2 melanoma
KM20L2 colon = system: KM20L2 colon
SK-MEL-28 melanoma = system: SK-MEL-28 melanoma
NCI-H522 lung = system: NCI-H522 lung
OVCAR-3 ovarian = system: OVCAR-3 ovarian
DMS 273 small cell lung = system: DMS 273 small cell lung
CCRF-CEM leukemia = system: CCRF-CEM leukemia
OVCAR-8 ovarian = system: OVCAR-8 ovarian
NCI-H226 lung = system: NCI-H226 lung
COLO 205 colon = system: COLO 205 colon
SK-OV-3 ovarian = system: SK-OV-3 ovarian
MALME-3M melanoma = system: MALME-3M melanoma
SN12C renal = system: SN12C renal
ACHN renal = system: ACHN renal
SNB-78 CNS = system: SNB-78 CNS
786-0 renal = system: 786-0 renal
SK-MEL-5 melanoma = system: SK-MEL-5 melanoma
RPMI-8226 leukemia = system: RPMI-8226 leukemia
SF-539 CNS = system: SF-539 CNS
A498 renal = system: A498 renal
HT29 colon = system: HT29 colon
U251 CNS = system: U251 CNS
HCC-2998 colon = system: HCC-2998 colon
K-562 leukemia = system: K-562 leukemia
OVCAR-5 ovarian = system: OVCAR-5 ovarian
DMS 114 small cell lung = system: DMS 114 small cell lung
A549 NSCLC = system: A549 NSCLC
UACC-257 melanoma = system: UACC-257 melanoma
DLD-1 colon = system: DLD-1 colon
RXF 393 renal = system: RXF 393 renal
UO-31 renal = system: UO-31 renal
SF-295 CNS = system: SF-295 CNS
SW-620 colon = system: SW-620 colon
IGROV1 ovarian = system: IGROV1 ovarian
HCT-15 colon = system: HCT-15 colon
TK-10 renal = system: TK-10 renal
OVCAR-4 ovarian = system: OVCAR-4 ovarian
NCI-H460 lung = system: NCI-H460 lung
SF-268 CNS = system: SF-268 CNS
EKVX NSCLC = system: EKVX NSCLC
SR leukemia = system: SR leukemia
HOP-18 NSCLC = system: HOP-18 NSCLC
LXFL 529 NSCLC = system: LXFL 529 NSCLC
HCT-116 colon = system: HCT-116 colon
MOLT-4 leukemia = system: MOLT-4 leukemia
HOP-92 NSCLC = system: HOP-92 NSCLC
M14 melanoma = system: M14 melanoma
CAKI-1 renal = system: CAKI-1 renal

In the case of `O=C(Nc1ccccc1SC(/C=C/NNC1=NC(c2ccccc2)C(c2ccccc2)=NN1)c1ccccc1)c1ccc(Cl)cc1Cl` (stereo not given), the TGI (HOP-62 NSCLC) is reported as 73.5 µM, the TGI (LOX IMVI melanoma) is reported as over 100 µM and the TGI (M19-MEL melanoma) is reported as over 100 µM. It also gave a TGI (SNB-75 CNS) of over 100 µM, a TGI (UACC-62 melanoma) of over 100 µM and a TGI (NCI-H23 lung) of 55.6 µM. The TGI (SNB-19 CNS) was over 100 µM, the TGI (HL-60(TB) leukemia) was over 100 µM and the TGI (KM12 colon) was over 100 µM. The TGI (SK-MEL-2 melanoma) was 45.6 µM, the TGI (KM20L2 colon) was over 100 µM and the TGI (SK-MEL-28 melanoma) was over 100 µM. The TGI (NCI-H522 lung) was over 100 µM, the TGI (OVCAR-3 ovarian) was over 100 µM and the TGI (DMS 273 small cell lung) was over 100 µM. The TGI (CCRF-CEM leukemia) was over 100 µM, the TGI (OVCAR-8 ovarian) was over 100 µM and the TGI (NCI-H226 lung) was 99.6 µM. For the same compound, the TGI (COLO 205 colon) was over 100 µM, the TGI (SK-OV-3 ovarian) was over 100 µM and the TGI (MALME-3M melanoma) was over 100 µM. The TGI (SN12C renal) was over 100 µM, the TGI (ACHN renal) was over 100 µM and the TGI (SNB-78 CNS) was over 100 µM. For the same compound, the TGI (786-0 renal) was over 100 µM, the TGI (SK-MEL-5 melanoma) was over 100 µM and the TGI (RPMI-8226 leukemia) was over 100 µM. The TGI (SF-539 CNS) was 60.2 µM, the TGI (A498 renal) was over 100 µM and the TGI (HT29 colon) was over 100 µM. It also gave a TGI (U251 CNS) of 64.6 µM, a TGI (HCC-2998 colon) of over 100 µM and a TGI (K-562 leukemia) of over 100 µM. It also gave a TGI (OVCAR-5 ovarian) of over 100 µM, a TGI (DMS 114 small cell lung) of over 100 µM and a TGI (A549 NSCLC) of over 100 µM. The TGI (UACC-257 melanoma) was over 100 µM, the TGI (DLD-1 colon) was over 100 µM and the TGI (RXF 393 renal) was over 100 µM. The TGI (UO-31 renal) was 94.6 µM, the TGI (SF-295 CNS) was over 100 µM and the TGI (SW-620 colon) was over 100 µM. It also gave a TGI (IGROV1 ovarian) of over 100 µM, a TGI (HCT-15 colon) of over 100 µM and a TGI (TK-10 renal) of over 100 µM. The TGI (OVCAR-4 ovarian) was 94.8 µM, the TGI (NCI-H460 lung) was over 100 µM and the TGI (SF-268 CNS) was over 100 µM. The TGI (EKVX NSCLC) was over 100 µM.

`CC1(CO)OC(n2cnc3c(N)ncnc32)C(O)C1O` (stereo not given) showed a TGI (SR leukemia) of over 100 µM, a TGI (HOP-18 NSCLC) of over 100 µM and a TGI (HOP-62 NSCLC) of over 100 µM. It also gave a TGI (LOX IMVI melanoma) of over 100 µM, a TGI (M19-MEL melanoma) of over 100 µM and a TGI (SNB-75 CNS) of over 100 µM. The TGI (UACC-62 melanoma) was over 100 µM, the TGI (NCI-H23 lung) was over 100 µM and the TGI (SNB-19 CNS) was over 100 µM. It also gave a TGI (HL-60(TB) leukemia) of over 100 µM, a TGI (KM12 colon) of over 100 µM and a TGI (SK-MEL-2 melanoma) of over 100 µM. The TGI (SK-MEL-28 melanoma) was over 100 µM, the TGI (NCI-H522 lung) was over 100 µM and the TGI (OVCAR-3 ovarian) was over 100 µM. For the same compound, the TGI (LXFL 529 NSCLC) was over 100 µM, the TGI (CCRF-CEM leukemia) was over 100 µM and the TGI (OVCAR-8 ovarian) was over 100 µM. The TGI (COLO 205 colon) was over 100 µM, the TGI (SK-OV-3 ovarian) was over 100 µM and the TGI (MALME-3M melanoma) was over 100 µM. For the same compound, the TGI (SN12C renal) was over 100 µM, the TGI (HCT-116 colon) was over 100 µM and the TGI (MOLT-4 leukemia) was over 100 µM. The TGI (ACHN renal) was over 100 µM, the TGI (786-0 renal) was over 100 µM and the TGI (HOP-92 NSCLC) was over 100 µM. For the same compound, the TGI (M14 melanoma) was over 100 µM, the TGI (SK-MEL-5 melanoma) was over 100 µM and the TGI (RPMI-8226 leukemia) was over 100 µM. For the same compound, the TGI (CAKI-1 renal) was over 100 µM, the TGI (SF-539 CNS) was over 100 µM and the TGI (A498 renal) was over 100 µM. The TGI (HT29 colon) was over 100 µM, the TGI (U251 CNS) was over 100 µM and the TGI (HCC-2998 colon) was over 100 µM. The TGI (K-562 leukemia) was over 100 µM, the TGI (OVCAR-5 ovarian) was over 100 µM and the TGI (DMS 114 small cell lung) was over 100 µM. The TGI (A549 NSCLC) was over 100 µM, the TGI (DLD-1 colon) was over 100 µM and the TGI (RXF 393 renal) was over 100 µM. It also gave a TGI (UO-31 renal) of over 100 µM, a TGI (SF-295 CNS) of over 100 µM and a TGI (SW-620 colon) of over 100 µM. It also gave a TGI (IGROV1 ovarian) of over 100 µM, a TGI (HCT-15 colon) of over 100 µM and a TGI (TK-10 renal) of over 100 µM. It also gave a TGI (OVCAR-4 ovarian) of over 100 µM, a TGI (NCI-H460 lung) of over 100 µM and a TGI (SF-268 CNS) of over 100 µM.

Reference: PubChem BioAssay (NCI)
